{
  "source": "patent EP4623909A1",
  "about": "“PHARMACEUTICAL COMPOSITION FOR TREATING OR RELIEVING COVID-19 AND FORMULATION COMPRISING SAME” (priority 2022, dated 2024)",
  "tested_on": "Delta strain of novel coronavirus",
  "assay_type": "in vivo, K18-hACE2 transgenic mice",
  "data": [
    {"smiles": "N#C[C@@]1(c2ccc3c(N)ncnn23)O[C@H](COC(=O)C2CCCCC2)[C@@H](O)[C@H]1O", "note": "[ATV014]", "values": [
      {"measurement": "viral load in the lungs (antiviral effect)", "setting": "[…], ATV014 100 mg/kg, Compound 1 150 mg/kg, once daily, intragastric, versus vehicle control", "result": "significant antiviral effects"},
      {"measurement": "anti-novel coronavirus effects in the mouse model", "setting": "conclusion, ATV014 100 mg/kg, Compound 1 150 mg/kg", "result": "significant anti-novel coronavirus effects"},
      {"measurement": "reduction of viral load", "setting": "mouse, in vivo", "result": "could reduce the viral load to varying degrees"}
    ]}
  ]
}
